Experimental data as given in patent publication US11109593B2, “Isoxazolin-5-one derivative and herbicide containing same as active ingredient” (HOKKO CHEMICAL INDUSTRY CO., LTD., priority 2017, dated 2021).

What was measured:
Format in all cases: in vivo
[1] = tested on: Scirpus juncoides; test: Test Example 1: herbicidal effect test by treatment of rice paddy soil (immediately after seeding); conditions: 120 g/10a active ingredient, dry weight vs untreated area, 14 days after treatment
Outline: (§1)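 Puddled, fertilized (N:P:K=17:17:17) paddy soil in Wagner pots; seeds sown 0–1 cm deep, flooded to about 3 cm. Emulsifiable formulations diluted in water and dropped into the water immediately after seeding at 120 g active ingredient per 10 ares; greenhouse. Herbicidal rate from dry weight vs untreated at 14 days.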

[2] = tested on: broad leaf weeds (Lindernia pyxidaria and Monochoria vaginalis); test: as above; conditions: 120 g/10a active ingredient, dry weight vs untreated area, 14 days after treatment
Outline: as §1

[3] = tested on: Echinochloa crus-galli; test: as above; conditions: 120 g/10a active ingredient, dry weight vs untreated area, 14 days after treatment
Outline: as §1

[4] = tested on: southern crabgrass; test: Test Example 3: herbicidal effect test by treatment of dry field farming soil (one day after seeding); conditions: 120 g/10a active ingredient, evaluated 14 days after treatment
Outline: (§2)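 Weeds were seeded into the upper soil layer of alluvial field soil and, one day afterwards, the soil surface was sprayed with water-diluted emulsion delivering 120 g active ingredient per 10 ares. Mean plant dry weight relative to untreated pots after 14 days gave the herbicidal rate, tested in duplicate.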

[5] = tested on: Amaranthus viridis; test: as above; conditions: 120 g/10a active ingredient, evaluated 14 days after treatment
Outline: as §2

[6] = tested on: Chenopodium album; test: as above; conditions: 120 g/10a active ingredient, evaluated 14 days after treatment
Outline: as §2

[7] = tested on: Echinochloa crus-galli; test: as above; conditions: 120 g/10a active ingredient, evaluated 14 days after treatment
Outline: as §2

[8] = tested on: southern crabgrass; test: Test Example 4: herbicidal effect test by treatment of leave and stem in dry field farming (seven days after seeding); conditions: 120 g/10a active ingredient; emulsion sprayed seven days after seeding; evaluated 14 days after treatment
Outline: (§3)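 Duplicate pots were scored 14 days post-spray by dry weight, herbicidal rate = {1 − treated/untreated average dry weight} × 100. The water-diluted emulsion, equivalent to 120 g active ingredient per 10 ares in 100 L, was applied seven days after sowing 20 seeds each into the upper 1 cm of alluvial soil.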

[9] = tested on: Amaranthus viridis; test: as above; conditions: 120 g/10a active ingredient; emulsion sprayed seven days after seeding; evaluated 14 days after treatment
Outline: as §3

[10] = tested on: Chenopodium album; test: as above; conditions: 120 g/10a active ingredient; emulsion sprayed seven days after seeding; evaluated 14 days after treatment
Outline: as §3

[11] = tested on: Echinochloa crus-galli; test: as above; conditions: 120 g/10a active ingredient; emulsion sprayed seven days after seeding; evaluated 14 days after treatment
Outline: as §3

[12] = tested on: Scirpus juncoides; test: Test Example 2: herbicidal effect test by treatment during growing period in paddy rice cultivation (seven days after seeding); conditions: 120 g/10a active ingredient, assessed 14 days after treatment, dry weight vs untreated area
Outline: (§4)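 Sow 30 seeds per species (0–1 cm) into puddled, fertilized paddy soil; keep flooded ~3 cm in greenhouse. Day 7 after seeding: drop water-diluted emulsion, 120 g a.i./10 ares. Harvest 14 d post-treatment; compare dry weight with untreated pots (duplicate).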

[13] = tested on: broad leaf weeds (Lindernia pyxidaria and Monochoria vaginalis); test: as above; conditions: 120 g/10a active ingredient, assessed 14 days after treatment, dry weight vs untreated area
Outline: as §4

[14] = tested on: Echinochloa crus-galli; test: as above; conditions: 120 g/10a active ingredient, assessed 14 days after treatment, dry weight vs untreated area
Outline: as §4

SMILES | Herbicidal rate (%) Scirpus juncoides [1] | Herbicidal rate (%) Lindernia pyxidaria [2] | Herbicidal rate (%) Monochoria vaginalis [2] | Herbicidal rate (%) Echinochloa crus-galli [3] | herbicidal rate, southern crabgrass [4] | herbicidal rate, Amaranthus viridis [5] | herbicidal rate, Chenopodium album [6] | herbicidal rate, Echinochloa crus-galli [7] | herbicidal effect (herbicidal rate), southern crabgrass [8] | herbicidal effect (herbicidal rate), Amaranthus viridis [9] | herbicidal effect (herbicidal rate), Chenopodium album [10] | herbicidal effect (herbicidal rate), Echinochloa crus-galli [11] | Herbicidal rate (%) Scirpus juncoides [12] | Herbicidal rate (%) Lindernia pyxidaria [13] | Herbicidal rate (%) Monochoria vaginalis [13] | Herbicidal rate (%) Echinochloa crus-galli [14]
CCC(C)Cn1oc(=O)c(Cc2ccccc2N(C(=O)OC)S(=O)(=O)C(F)(F)F)c1C (stereo not drawn) [Compound 1-583] | 90% | 90% | 90% | 100% | 90% | 60% | 50% | 100% | 60% | 50% | 50% | 80% | 90% | 80% | 90% | 100%
COCC(C)n1oc(=O)c(Cc2ccccc2N(C(=O)OC)S(=O)(=O)C(F)(F)F)c1C (stereo not drawn) [Compound 1-587] | 90% | 90% | 90% | 90% | 90% | 90% | 90% | 90% | 90% | 40% | 40% | 90% | 90% | 90% | 90% | 90%
COC(=O)N(c1ccccc1Cc1c(C)n(CCSC)oc1=O)S(=O)(=O)C(F)(F)F [Compound 1-592] | 90% | 90% | 90% | 90% | 90% | 90% | 90% | 90% | 90% | 40% | 40% | 90% | 90% | 90% | 90% | 90%
COC(=O)N(c1ccccc1Cc1c(C)n(Cc2ccc(F)cc2)oc1=O)S(=O)(=O)C(F)(F)F [Compound 1-597] | 90% | 90% | 100% | 90% | 90% | 0% | 0% | 90% | 50% | 40% | 40% | 40% | 90% | 80% | 100% | 90%
COC(=O)N(c1ccccc1Cc1c(C)n(C(C)c2ccccc2)oc1=O)S(=O)(=O)C(F)(F)F (stereo not drawn) [Compound 1-598] | 90% | 90% | 90% | 90% | 90% | 90% | 90% | 90% | 90% | 40% | 40% | 90% | 90% | 90% | 90% | 90%
CCOC(=O)N(c1ccccc1Cc1c(C)n(C(C)(C)C)oc1=O)S(=O)(=O)C(F)(F)F [Compound 1-604] | 90% | 90% | 90% | 90% | 90% | 90% | 90% | 90% | 90% | 40% | 40% | 90% | 90% | 90% | 90% | 90%
CCOC(=O)N(c1ccccc1Cc1c(C)n(C(C)CC)oc1=O)S(=O)(=O)C(F)(F)F (stereo not drawn) [Compound 1-605] | 90% | 90% | 90% | 90% | 90% | 90% | 90% | 90% | 90% | 40% | 40% | 90% | 90% | 90% | 90% | 90%
CCOC(=O)N(c1ccccc1Cc1c(C)n(CC(C)(C)C)oc1=O)S(=O)(=O)C(F)(F)F [Compound 1-609] | 90% | 90% | 90% | 90% | 90% | 90% | 90% | 90% | 90% | 40% | 40% | 90% | 90% | 90% | 90% | 90%
CCOC(=O)N(c1ccccc1Cc1c(C)n(CC(C)CC)oc1=O)S(=O)(=O)C(F)(F)F (stereo not drawn) [Compound 1-611] | 90% | 90% | 80% | 100% | 70% | 40% | 40% | 70% | 70% | 60% | 50% | 80% | 90% | 70% | 80% | 100%
